What is called DC50 is the midpoint of the concentration-degradation curve. What is called EC50 is the concentration at which the effect is half-maximal. A lower EC50 goes with higher potency in that assay.

In patent US20250320206A1, “STAT6 DEGRADERS” (Gilead Sciences, Inc., priority 2024, published 2025) one finds DC50 and EC50 data, which are given here for three compounds.

One experiment has as its target T1, STAT6 (Homo sapiens, UniProt P42226).
T1 construct: These cells express endogenous STAT6; host or cells: HeLa LgBiT clone 4.14
T1 sequence (P42226 1-847): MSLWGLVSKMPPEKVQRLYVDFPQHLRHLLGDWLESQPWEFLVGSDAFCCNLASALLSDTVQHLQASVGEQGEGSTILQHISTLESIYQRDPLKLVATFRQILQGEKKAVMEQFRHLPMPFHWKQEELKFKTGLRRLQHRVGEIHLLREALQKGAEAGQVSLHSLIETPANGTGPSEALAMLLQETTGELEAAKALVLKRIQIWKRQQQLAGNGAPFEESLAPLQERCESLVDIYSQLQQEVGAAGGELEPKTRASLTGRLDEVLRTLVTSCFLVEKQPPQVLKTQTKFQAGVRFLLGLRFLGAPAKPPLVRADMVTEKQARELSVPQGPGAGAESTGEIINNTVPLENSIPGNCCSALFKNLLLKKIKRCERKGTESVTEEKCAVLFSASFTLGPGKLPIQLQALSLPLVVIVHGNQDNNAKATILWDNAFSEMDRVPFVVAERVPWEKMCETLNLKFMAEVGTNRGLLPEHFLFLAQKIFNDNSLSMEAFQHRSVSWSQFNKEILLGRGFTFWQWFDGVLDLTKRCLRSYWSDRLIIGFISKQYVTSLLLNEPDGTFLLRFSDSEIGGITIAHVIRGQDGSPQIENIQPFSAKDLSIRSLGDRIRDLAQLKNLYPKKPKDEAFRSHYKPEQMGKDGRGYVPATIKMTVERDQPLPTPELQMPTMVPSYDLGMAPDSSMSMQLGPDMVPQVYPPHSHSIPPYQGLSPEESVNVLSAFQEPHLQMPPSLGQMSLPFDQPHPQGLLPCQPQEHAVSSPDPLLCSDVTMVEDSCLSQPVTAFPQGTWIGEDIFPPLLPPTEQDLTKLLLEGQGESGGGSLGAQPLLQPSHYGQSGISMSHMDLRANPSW
The experiment is described as follows: Stat6 Degrader Assay (HiBiT based, HeLa LgBiT clone 4.14). Conditions: HeLa LgBiT clone 4.14 HiBiT-STAT6, 4-24 h incubation; values given for compounds with >80% Emax; geometric mean; read-out: STAT6 degradation DC50. The format is cell-based. The method, boiled down: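 Luminescence from HiBiT-STAT6 complementing stably expressed LgBiT in HeLa clone 4.14 reports remaining STAT6 protein. Cells (5000/well) exposed to compound for 4-24 h at 37° C; read 0.5 h after Nano-Glo addition. 100% degradation window set with 50 μM terfenadine; percent degradation plotted against concentration.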
A general note: The HiBiT peptide binds its large partner to form an active luciferase.

The test system of experiment [1] is Eotaxin-3 release in human whole blood stimulated with IL-4. Description: Human Whole Blood Eotaxin-3 Assay (IL-4 stimulated eotaxin-3 release). The experiment is classed as cell-based. Conditions: IL-4 stimulation, 48 h, values given for compounds with >80% Emax, geometric mean. Put shortly: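 Eotaxin-3 (CCL26) release measured by MSD kit in plasma supernatant after 48 h IL-4 stimulation ([…]) of human whole blood. Compounds added in triplicate 4-fold dilutions 2 h before stimulation; 0.5% DMSO final, 37° C, 5% CO2.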

For the compound `CNc1cc(=O)n(-c2ccnc3c2cc([C@H](C)N2CC=C(c4c(C)cc(C(=O)N5CCC(CN6CCN(Cc7ccc8c(c7)C7(CCC7)C(=O)N8C7CCC(=O)NC7=O)C[C@@H]6C)CC5)cc4F)CC2)n3C)cc1F` (stereo partly drawn) [Example 3u309, 3-(5′-(((S)-4-((1-(3-fluoro-4-(1-((S)-1-(4-(5-fluoro-4-(methylamino)-2-oxopyridin-1 (2H)-yl)-1-methyl-1H-pyrrolo[2,3-b]pyridin-2-yl)ethyl)-1,2,3,6-tetrahydropyridin-4-yl)-5-methylbenzoyl)piperidin-4-yl)methyl)-3-methylpiperazin-1-yl)methyl)-2′-oxospiro[cyclobutane-1,3′-indolin]-1′-yl)piperidine-2,6-dione], on STAT6, the DC50 came out at 2.2 nM. In experiment [1], this compound showed an EC50 of 4.8 nM.
For `CNc1ccn(-c2ccnc3c2cc([C@H](C)N2CC=C(c4c(C)cc(C(=O)N5CCC(CN6CCN(c7cc8c(cc7F)n(C7CCC(=O)NC7=O)c(=O)n8C)CC6)CC5)cc4F)CC2)n3C)c(=O)c1` (stereo partly drawn) [Example 3u310, 3-(6-fluoro-5-(4-((1-(3-fluoro-5-methyl-4-(1-((S)-1-(1-methyl-4-(4-(methylamino)-2-oxopyridin-1 (2H)-yl)-1H-pyrrolo[2,3-b]pyridin-2-yl)ethyl)-1,2,3,6-tetrahydropyridin-4-yl)benzoyl)-piperidin-4-yl)methyl)piperazin-1-yl)-3-methyl-2-oxo-2,3-dihydro-1H-benzo[d]imidazol-1-yl)-piperidine-2,6-dione] the same measures were 0.7 nM and 0.4 nM.
For `C[C@H]1CN(Cc2ccc3c(c2)n(C)c(=O)n3C2CCC(=O)NC2=O)CCN1CC1CCN(C(=O)c2cc(F)c(C3CCN(Cc4cc5c(-n6ccc7c(c6=O)CCN7)ccnc5n4C)CC3)c(F)c2)CC1` (stereo partly drawn) [Example 3u311, 3-(5-(((S)-4-((1-(3,5-difluoro-4-(1-((1-methyl-4-(4-oxo-1,2,3,4-tetrahydro-5H-pyrrolo[3,2-c]pyridin-5-yl)-1H-pyrrolo[2,3-b]pyridin-2-yl)methyl)piperidin-4-yl)benzoyl)piperidin-4-yl)methyl)-3-methylpiperazin-1-yl)methyl)-3-methyl-2-oxo-2,3-dihydro-1H-benzo[d]imidazol-1-yl)piperidine-2,6-dione] the same measures were 0.5 nM and 0.4 nM.
